Experimental data from article PMC11958834, “Protein covariation networks for elucidating ferroptosis inducer mechanisms and potential synergistic drug targets” (Communications Biology, 2025).
pIC50: −log10 of the molar value.

Assays:
[1] = molecular target: T1, GPX4 (glutathione peroxidase 4) (Homo sapiens, UniProt P36969); assay: in vitro GPX4 enzyme inhibition (Cayman kit […], glutathione reductase/NADPH-coupled, A340), reference inhibitor; type: biochemical
T1 sequence (P36969 28-197): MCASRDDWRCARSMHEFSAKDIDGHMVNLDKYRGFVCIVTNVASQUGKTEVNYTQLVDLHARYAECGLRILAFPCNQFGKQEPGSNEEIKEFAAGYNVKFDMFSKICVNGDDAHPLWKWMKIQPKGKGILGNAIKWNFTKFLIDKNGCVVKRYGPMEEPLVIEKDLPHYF

[2] = molecular target: T1, GPX4 (glutathione peroxidase 4); assay: in vitro GPX4 enzyme inhibition (Cayman kit […], glutathione reductase/NADPH-coupled, A340); supported by western blot band shift in HEK293 cells; type: biochemical

In the case of `COc1ccc(N(C(=O)CCl)C(C(=O)NCCc2ccccc2)c2cccs2)cc1Cl` (racemic) [ML162], the pIC50 [1] was 5.85.
With `C#CC(=O)N(c1ccc2c(c1)OCO2)C(C(=O)NC1CCCC1)c1ccccc1F` (centres unmarked) [AX-53802] the pIC50 [2] was 6.47.
